Measurements: US20170296498A1, “Rapid Relief of Motor Fluctuations in Parkinson's Disease” (Civitas Therapeutics, Inc., priority 2014, published 2017)

System: Parkinson's disease patients in the OFF state
Experiment: Phase 2 study of pulmonary levodopa in PD patients: plasma levodopa concentration vs UPDRS
Assay type: in vivo, human
Conditions: FIG. 8, plasma concentration vs UPDRS
Method: The twenty four PD (24) patients treated in this study underwent serial evaluations of L-dopa plasma levels, motor response, and safety at each visit. The patients were administered the study drug in the OFF state with the serial evaluations starting prior to dosing and continuing for up to 180 minutes post-dose. Motor function was measured using a tapping test, the Unified Parkinson's Disease Rating Scale Part III (UPDRS III), and subjective evaluation of “meaningful” ON and OFF. Safety parameters monitored included pulmonary function, clinical laboratory data, EGCs, and vital signs (blood pressure, heart rate, and orthostatic blood pressure). This study was designed to measure the time, magnitude, and durability of pulmonary levodopa's effect on motor function, to evaluate the safety and tolerability of pulmonary levodopa in Parkinson's disease patients.
In FIG. 8, patient's plasma levodopa concentrations are being compared to UPDRS scores. UPDRS is a standard test for Parkinson's disease patients to test their response to drug treatment and their disease progression. […] The different baseline levels of levodopa plasma relate to the fact that each patient has a different effective dose or effective concentration for the levodopa to have an effect on each patient. […]

## N[C@@H](Cc1ccc(O)c(O)c1)C(=O)O [L-Dopa, levodopa]
  levodopa plasma concentration difference between being in the off state and in the on state: 200 to 400 ng/mL
